Test results from US8546608B2, “Proteasome inhibitors and methods of using the same” (Cephalon, Inc., priority 2003, dated 2013).
pEC50, pIC50: −log10 of the molar value.

Experiments:
[1] = target: T1, 20S Human Erythrocyte Proteasome (HEP) (Homo sapiens, UniProt P20618+P28074); assay: Chymotrypsin-like activity of 20S Human Erythrocyte Proteasome (HEP), IC50 determination; type: biochemical; conditions: assay of Example C, inhibition of HEP
T1 construct: 20S Human Erythrocyte Proteasome (HEP), purchased from Immatics Biotechnologies Inc; purchased Immatics Biotechnologies Inc., Tübingen, Germany; host or cells: human erythrocytes (natural source)
Summary of the method: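 20S proteasome at 0.2 μg/mL (about 0.6 nM catalytic sites) in 20 mM Tris with 0.04% SDS, preincubated 15 min at 37° C with inhibitor before Suc-LLVY-AMC (100 μM final). AMC fluorescence read in the linear range; triplicates, IC50 from concentration series.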

[2] = target: T2, proteasome in Molt-4 cells (human leukemia) (Homo sapiens, UniProt P20618+P28074); type: cell-based; conditions: assay of Example E, inhibition of MOLT4; read-out: MOLT4 (EC50)
T2 sequence (P28074 60-263): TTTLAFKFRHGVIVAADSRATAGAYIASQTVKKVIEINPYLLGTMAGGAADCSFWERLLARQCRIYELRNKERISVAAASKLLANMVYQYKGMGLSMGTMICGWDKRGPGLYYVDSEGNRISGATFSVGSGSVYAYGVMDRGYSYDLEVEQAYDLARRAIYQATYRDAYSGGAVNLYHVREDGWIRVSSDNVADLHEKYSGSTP
T2 sequence (P20618 29-241): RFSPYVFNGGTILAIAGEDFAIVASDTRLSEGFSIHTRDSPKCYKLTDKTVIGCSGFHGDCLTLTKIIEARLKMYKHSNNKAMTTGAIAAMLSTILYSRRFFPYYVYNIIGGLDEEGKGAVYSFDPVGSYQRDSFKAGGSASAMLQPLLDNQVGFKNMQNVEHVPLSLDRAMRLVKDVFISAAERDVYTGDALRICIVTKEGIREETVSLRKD
Summary of the method: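 Intact Molt-4 cells (6×10^6 cells/mL) in HEPES-buffered saline were preincubated with inhibitor 15 min at 37 °C, then given cell-permeable MeOSuc-FLF-AFC at 25 μM final.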

Row | Structure (SMILES) | pIC50 [1] | pEC50 [2]
1 | Cc1cccc(/C=C/C(=O)N[C@@H](CCCNC(=N)N[N+](=O)[O-])C(=O)N[C@@H](CC(C)C)B2O[C@@H]3C[C@@H]4C[C@@H](C4(C)C)[C@]3(C)O2)c1 [D.3.57, 3-(3-Methylphenyl)acrylamide,N-[(1S)-1-[[[(1R)-1-[(3aS,4S,6S,7aR)-hexahydro-3a,5,5-trimethyl-4,6-methano-1,3,2-benzodioxaborol-2-yl]-3-methylbutyl]amino]carbonyl]-4-[[imino(nitroamino)methyl]amino]butyl]] | > 8.00 | > 6.70
2 | CC(C)C[C@H](NC(=O)[C@H](CCCNC(=N)N[N+](=O)[O-])NC(=O)CC12CC3CC(CC(C3)C1)C2)B1O[C@@H]2C[C@@H]3C[C@@H](C3(C)C)[C@]2(C)O1 [D.3.58, 2-Adamantan-1-ylacetamide,N-[(1S)-1-[[[(1R)-1-[(3aS,4S,6S,7aR)-hexahydro-3a,5,5-trimethyl-4,6-methano-1,3,2-benzodioxaborol-2-yl]-3-methylbutyl]amino]carbonyl]-4-[[imino(nitroamino)methyl]amino]butyl]] | > 8.00 | > 6.70
3 | Cc1ccc(/C=C/C(=O)N[C@@H](CCCNC(=N)N[N+](=O)[O-])C(=O)N[C@@H](CC(C)C)B2O[C@@H]3C[C@@H]4C[C@@H](C4(C)C)[C@]3(C)O2)cc1 [D.3.62, 3-(4-Methylphenyl)acrylamide,N-[(1S)-1-[[[(1R)-1-[(3aS,4S,6S,7aR)-hexahydro-3a,5,5-trimethyl-4,6-methano-1,3,2-benzodioxaborol-2-yl]-3-methylbutyl]amino]carbonyl]-4-[[imino(nitroamino)methyl]amino]butyl]] | > 8.00 | > 6.70
4 | CC(C)C[C@H](NC(=O)[C@H](CCCNC(=N)N[N+](=O)[O-])NC(=O)c1ccc(-n2cccc2)cc1)B1O[C@@H]2C[C@@H]3C[C@@H](C3(C)C)[C@]2(C)O1 [D.3.64, 4-Pyrrol-1-yl-benzamide,N-[(1S)-1-[[[(1R)-1-[(3aS,4S,6S,7aR)-hexahydro-3a,5,5-trimethyl-4,6-methano-1,3,2-benzodioxaborol-2-yl]-3-methylbutyl]amino]carbonyl]-4-[[imino(nitroamino)methyl]amino]butyl]] | > 8.00 | > 6.70
5 | CCCC/C=C/C(=O)N[C@@H](CCCNC(=N)N[N+](=O)[O-])C(=O)N[C@@H](CC(C)C)B1O[C@@H]2C[C@@H]3C[C@@H](C3(C)C)[C@]2(C)O1 [D.3.66, Hept-2-enamide,N-[(1S)-1-[[[(1R)-1-[(3aS,4S,6S,7aR)-hexahydro-3a,5,5-trimethyl-4,6-methano-1,3,2-benzodioxaborol-2-yl]-3-methylbutyl]amino]carbonyl]-4-[[imino(nitroamino)methyl]amino]butyl]] | > 8.00 | > 6.70
6 | CCCCCC/C=C/CC(=O)N[C@@H](CCCNC(=N)N[N+](=O)[O-])C(=O)N[C@@H](CC(C)C)B1O[C@@H]2C[C@@H]3C[C@@H](C3(C)C)[C@]2(C)O1 [D.3.70, (E)-Dec-3-enoic acid amide,N-[(1S)-1-[[[(1R)-1-[(3aS,4S,6S,7aR)-hexahydro-3a,5,5-trimethyl-4,6-methano-1,3,2-benzodioxaborol-2-yl]-3-methylbutyl]amino]carbonyl]-4-[[imino(nitroamino)methyl]amino]butyl]] | > 8.00 | > 6.70
7 | CC(C)C[C@H](NC(=O)[C@H](CCCNC(=N)N[N+](=O)[O-])NC(=O)CCCCC1CCCCC1)B1O[C@@H]2C[C@@H]3C[C@@H](C3(C)C)[C@]2(C)O1 [D.3.73] | > 8.00 | > 6.70
8 | CC(C)=CCC[C@@H](C)CC(=O)N[C@@H](CCCNC(=N)N[N+](=O)[O-])C(=O)N[C@@H](CC(C)C)B1O[C@@H]2C[C@@H]3C[C@@H](C3(C)C)[C@]2(C)O1 [D.3.75, (3R)-3,7-Dimethyl-oct-6-enoic acid amide,N-[(1S)-1-[[[(1R)-1-[(3aS,4S,6S,7aR)-hexahydro-3a,5,5-trimethyl-4,6-methano-1,3,2-benzodioxaborol-2-yl]-3-methylbutyl]amino]carbonyl]-4-[[imino(nitroamino)methyl]amino]butyl]] | > 8.00 | > 6.70
9 | CC(C)C[C@H](NC(=O)[C@H](CCCNC(=N)N[N+](=O)[O-])NC(=O)/C=C/c1ccc(Br)cc1)B1O[C@@H]2C[C@@H]3C[C@@H](C3(C)C)[C@]2(C)O1 [D.3.92, (E)-3-(4-Bromophenyl)acrylamide,N-[(1S)-1-[[[(1R)-1-[(3aS,4S,6S,7aR)-hexahydro-3a,5,5-trimethyl-4,6-methano-1,3,2-benzodioxaborol-2-yl]-3-methylbutyl]amino]carbonyl]-4-[[imino(nitroamino)methyl]amino]butyl]] | > 8.00 | > 6.70
10 | CCCCCC/C=C/C(=O)N[C@@H](CCCNC(=N)N[N+](=O)[O-])C(=O)N[C@@H](CC(C)C)B1O[C@@H]2C[C@@H]3C[C@@H](C3(C)C)[C@]2(C)O1 [D.3.96, Non-2-enoic acid amide,N-[(1S)-1-[[[(1R)-1-[(3aS,4S,6S,7aR)-hexahydro-3a,5,5-trimethyl-4,6-methano-1,3,2-benzodioxaborol-2-yl]-3-methylbutyl]amino]carbonyl]-4-[[imino(nitroamino)methyl]amino]butyl]] | > 8.00 | > 6.70
11 | CCCCCCCCCCCCCC(=O)N[C@@H](CCCNC(=N)N[N+](=O)[O-])C(=O)N[C@@H](CC(C)C)B1O[C@@H]2C[C@@H]3C[C@@H](C3(C)C)[C@]2(C)O1 [D.3.102, Tetradecanamide,N-[(1S)-1-[[[(1R)-1-[(3aS,4S,6S,7aR)-hexahydro-3a,5,5-trimethyl-4,6-methano-1,3,2-benzodioxaborol-2-yl]-3-methylbutyl]amino]carbonyl]-4-[[imino(nitroamino)methyl]amino]butyl]] | > 8.00 | 5.70 to 6.70

Second part, the compound after the results:

Row | pIC50 [1] | pEC50 [2] | Structure (SMILES)
12 | > 8.00 | > 6.70 | CC(C)C[C@H](NC(=O)[C@H](CCCNC(=N)N[N+](=O)[O-])NC(=O)COc1ccc(C(C)C)cc1)B1O[C@@H]2C[C@@H]3C[C@@H](C3(C)C)[C@]2(C)O1 [D.3.54]
13 | > 8.00 | > 6.70 | CCc1ccc(OCC(=O)N[C@@H](CCCNC(=N)N[N+](=O)[O-])C(=O)N[C@@H](CC(C)C)B2O[C@@H]3C[C@@H]4C[C@@H](C4(C)C)[C@]3(C)O2)cc1 [D.3.55]
14 | > 8.00 | > 6.70 | Cc1ccc(OCC(=O)N[C@@H](CCCNC(=N)N[N+](=O)[O-])C(=O)N[C@@H](CC(C)C)B2O[C@@H]3C[C@@H]4C[C@@H](C4(C)C)[C@]3(C)O2)cc1C [D.3.67, 2-(3,4-Dimethylphenoxy)acetamide,N-[(1S)-1-[[[(1R)-1-[(3aS,4S,6S,7aR)-hexahydro-3a,5,5-trimethyl-4,6-methano-1,3,2-benzodioxaborol-2-yl]-3-methylbutyl]amino]carbonyl]-4-[[imino(nitroamino)methyl]amino]butyl]]
15 | > 8.00 | > 6.70 | CCOc1ccc(C(=O)N[C@@H](CCCNC(=N)N[N+](=O)[O-])C(=O)N[C@@H](CC(C)C)B2O[C@@H]3C[C@@H]4C[C@@H](C4(C)C)[C@]3(C)O2)cc1 [D.3.91]
16 | > 8.00 | > 6.70 | COc1ccc2cc([C@H](C)C(=O)N[C@@H](CCCNC(=N)N[N+](=O)[O-])C(=O)N[C@@H](CC(C)C)B3O[C@@H]4C[C@@H]5C[C@@H](C5(C)C)[C@]4(C)O3)ccc2c1 [D.3.93, (2S)-2-(6-Methoxynaphthalen-2-yl)-propanamide,N-[(1S)-1-[[[(1R)-1-[(3aS,4S,6S,7aR)-hexahydro-3a,5,5-trimethyl-4,6-methano-1,3,2-benzodioxaborol-2-yl]-3-methylbutyl]amino]carbonyl]-4-[[imino(nitroamino)methyl]amino]butyl]]
17 | > 8.00 | > 6.70 | COc1ccc(C(=O)N[C@@H](CCCNC(=N)N[N+](=O)[O-])C(=O)N[C@@H](CC(C)C)B2O[C@@H]3C[C@@H]4C[C@@H](C4(C)C)[C@]3(C)O2)cc1F [D.3.94, 3-Fluoro-4-methoxybenzamide,N-[(1S)-1-[[[(1R)-1-[(3aS,4S,6S,7aR)-hexahydro-3a,5,5-trimethyl-4,6-methano-1,3,2-benzodioxaborol-2-yl]-3-methylbutyl]amino]carbonyl]-4-[[imino(nitroamino)methyl]amino]butyl]]
18 | > 8.00 | > 6.70 | CC(C)C[C@H](NC(=O)[C@H](CCCNC(=N)N[N+](=O)[O-])NC(=O)/C=C/c1ccc2ccccc2c1)B1O[C@@H]2C[C@@H]3C[C@@H](C3(C)C)[C@]2(C)O1 [D.3.97, (E)-3-(Naphthalen-2-yl)acrylamide,N-[(1S)-1-[[[(1R)-1-[(3aS,4S,6S,7aR)-hexahydro-3a,5,5-trimethyl-4,6-methano-1,3,2-benzodioxaborol-2-yl]-3-methylbutyl]amino]carbonyl]-4-[[imino(nitroamino)methyl]amino]butyl]]
